Columns and labels:
Type in all cases: cell-based
[1] = system: bacteria that proliferated in the industrial fermentation (contaminated yeast cream); test: Bacterial plate counts of contaminated yeast cream after acid and/or chlorine dioxide treatment (lab scale, Examples 1.1 and 1.2); conditions: for reduction of bacterial population: yeast cream first lowered to pH 2.0 with sulfuric acid, 5 minutes
Protocol: A yeast cream (also referred to herein as a “yeast slurry”) separated from the fermentation broth and contaminated with bacteria that proliferated in the industrial fermentation was treated at 20° C. with acid alone, chlorine dioxide alone or a combination of the two. In the acid treated condition, the pH was lowered from 5.0 to 2.0 with sulfuric acid. In the chlorine dioxide treated condition, a concentrated stock of chlorine dioxide in water (10,000 ppm) was prepared by passing a mixture of chlorine and nitrogen gas through sodium chlorite columns. The resulting ClO2 gas was sparged into 4 L of cold de-ionized water until the desired concentration was reached. This chlorine dioxide solution was used to treat the yeast cream.
In the combination treatment, the yeast cream was first lowered to pH 2.0 with sulfuric acid for 5 minutes and subsequently treated with the indicated bolus dose of chlorine dioxide for 5 minutes. In cases where the pH was lowered, the yeast cream was titrated back to 5.0 with sodium hydroxide after 10 minutes and prior to plating for bacterial enumeration. The duration of acid exposure was limited to 10 minutes to match the duration of exposure for the other treatments.
Bacterial colonies were enumerated via standard plate count methods. In order to selectively plate bacterial colonies and inhibit yeast growth, tryptic soy agar plates (15 g/L pancreatic digest of casein, 5 g/L enzymatic digest of soybean meal, 5 g/L sodium chloride and 15 g/L agar) with 100 mg/L cycloheximide were used. Samples were serially diluted into sterile saline (0.9% NaCl w/v) prior to plating.
Contaminated yeast cream obtained from the fermentation of Example 1.1 was titrated to pH 2.0 with sulfuric acid, treated with various concentrations of chlorine dioxide (0, 50, 100, 150 and 200 ppm) and plated to determine the bacterial reduction at pH 2.0 as outlined above, with the exception that the temperature of the treatment was 30° C. rather than 20° C. Bacterial populations were enumerated as previously described (Example 1.1). Bacterial populations were also enumerated on a control sample that was not subjected to chlorine dioxide or pH titration.

[2] = system: Saccharomyces cerevisiae yeast strain; test: Yeast cell counts (viability) of yeast cream after acid and/or chlorine dioxide treatment
Protocol: A sample of the yeast cream from Example 1.1 was plated for yeast growth after the treatments outlined therein. […] Selective yeast growth was enabled by serially diluting the cream in sterile saline (0.9% NaCl w/v) and plating on YM plates (10 g/L glucose, 5 g/L peptone, 3 g/L yeast extract, 3 g/L malt extract, 20 g/L agar) containing 34 mg/L chloramphenicol to inhibit bacterial growth.

[3] = system: contaminated yeast cream (Saccharomyces cerevisiae yeast strain with bacterial contaminants); test: Yeast fermentation performance in lignocellulosic hydrolysate after treatment of contaminated yeast cream
Protocol: Yeast fermentation performance was evaluated by inoculating the contaminated control yeast, acid-treated yeast and combination acid-chlorine dioxide treated yeast creams (treated as set forth in Example 1.1) into 400 mL of lignocellulosic hydrolysate. The lignocellulosic hydrolysate was produced as set forth in Example 1.1. Prior to inoculation, the media was sparged with pure CO2 for two minutes to ensure anaerobicity. Cells were allowed to ferment at 30° C., 150 rpm until sugar exhaustion. CO2 production was monitored for the course of the fermentation and samples were taken for dry cell weight and HPLC analysis.
The samples were analyzed for cell mass using dry cell weight (Rice et al. (1980) Am. Soc. Brew. Chem. J. 38:142-45, which is incorporated herein by reference). For the fermentability analysis, samples were taken from the bioreactors using a 10 mL syringe. From each sample, cells in 2 mL culture samples were pelleted by centrifugation and the supernatant decanted and filtered through a 0.2 μm syringe filter. Each supernatant sample was diluted with 5 mM sulfuric acid. All dilutions were analyzed for glucose, xylose, xylitol, glycerol, and ethanol content on the Agilent 1100 Series Refractive Index Detector HPLC, while acetic and lactic acid were analyzed concurrently using an Agilent 1200 Series Variable Wavelength Detector HPLC. The column used for separation was the Varian Metacarb 87H Organic Acid column, maintained at 50° C. with a 5 mM sulfuric acid mobile phase at a flow rate of 0.6 mL/min. The unit was equipped with the 1100 Series Auto-sampler and Pumping System and controlled with the Chemstation software.

[4] = system: bacteria contaminating yeast cream; test: Bacterial plate counts of yeast cream in industrial scale operation before and after treatment
Protocol: A volume of 100,000 L whole fermentation broth was separated into a beer fraction and a yeast cream after completion of the fermentation. The yeast cream was concentrated to approximately 170 g dry cell weight/L. Prior to recycle into the next fermentation batch, the yeast cream contaminated with bacteria was treated at 20° C. with acid alone (batch 1) or treated with acid in combination with chlorine dioxide (batch 2). […] Chlorine dioxide was generated in concentrated form at a nominal concentration of 2700 ppm using a system commercially available from Pureline, Palatine, Ill. In the combination treatment, the acidity of the yeast cream was first lowered to pH 2.0 (as per Example 1.1) and subsequently treated at a bolus dose of 200 ppm chlorine dioxide with a residence time of approximately 45 seconds. After treatment, the yeast cream was fed back into the fermentation.

SMILES	reduction of contamination in yeast cream ([1]; 100 ppm chlorine dioxide, pH 2, 30° C.)	decrease of bacterial counts ([1]; 200 ppm chlorine dioxide, pH 2, 30° C.)	reduction of bacterial population ([1]; 200 ppm chlorine dioxide, 20° C.)	reduction of bacterial counts ([1]; 500 ppm chlorine dioxide, room temperature, as restated in Example 1.2 (see FIG. 2))	reduction of bacterial population ([1]; 500 ppm chlorine dioxide, 20° C.)	effect of increasing chlorine dioxide dose on bacterial populations ([1]; pH 5.0, 0, 200 and 500 ppm, 20° C., no acid)	effect of increasing chlorine dioxide dose on fermentation yeast populations ([2]; 0, 200, 500 ppm, regardless of the pH of the treatment (pH 5 or pH 2))	viability of the fermentation yeast culture ([2]; combination of acid (pH 2) and chlorine dioxide 200 and 500 ppm, 20° C.)	xylose consumption rate in lignocellulosic hydrolysate ([3]; combination acid-chlorine dioxide treatment (pH 2, 200 and 500 ppm) versus untreated control, change greater than with acid alone)	ethanol yield ([3]; combination acid-chlorine dioxide treatment versus untreated control, change greater than with acid alone)	decrease of bacterial contamination counts ([4]; pH 2.0 with sulfuric acid then 200 ppm chlorine dioxide, about 45 seconds, 20° C., industrial scale (batch 2))	reduction of bacterial population by acid alone (pH control) ([1]; pH 2.0, no chlorine dioxide, 30° C.)	reduction of bacterial population by lowering the pH alone ([1]; pH 2.0 with sulfuric acid, 0 ppm chlorine dioxide, 20° C., 10 minutes)	viability of the fermentation yeast culture ([2]; acid treatment alone, pH 2, 20° C.)	ethanol yield ([3]; acid treatment alone (pH 2) versus untreated control)	xylose consumption rate in lignocellulosic hydrolysate ([3]; acid treatment alone (pH 2) versus untreated control, equivalent cell concentrations, 30° C.)	reduction of bacterial contamination counts ([4]; sulfuric acid alone to pH 2.0, 20° C., industrial scale (batch 1))
[O][Cl+][O-] [chlorine dioxide]	10^2 CFU/mL	greater than 10^5 CFU/mL	10^2 CFU/mL	100 fold	10^3 CFU/mL	negligible effect	negligible effect	not affected	relative decrease	increase	10^4 CFU/mL	–	–	–	–	–	–
O=S(=O)(O)O [sulfuric acid]	–	–	–	–	–	–	–	–	–	–	–	did not reduce	does not significantly reduce	not affected	increase	relative decrease	10^2 CFU/mL

Source: patent publication US8759049B2, “Method for the production of a fermentation product from a sugar hydrolysate” (Iogen Energy Corporation, priority 2010, dated 2014)
